Among the data in patent publication US20230339851A1, “CXCR6 SULFONAMIDE COMPOUNDS” (CHEMOCENTRYX, INC., priority 2022, published 2023) are IC50 values, retold here.

This assay deals with T1, human CXCR6 (Homo sapiens, UniProt O00574).
T1 construct: expressed in transfected cells
T1 sequence (O00574 whole entry): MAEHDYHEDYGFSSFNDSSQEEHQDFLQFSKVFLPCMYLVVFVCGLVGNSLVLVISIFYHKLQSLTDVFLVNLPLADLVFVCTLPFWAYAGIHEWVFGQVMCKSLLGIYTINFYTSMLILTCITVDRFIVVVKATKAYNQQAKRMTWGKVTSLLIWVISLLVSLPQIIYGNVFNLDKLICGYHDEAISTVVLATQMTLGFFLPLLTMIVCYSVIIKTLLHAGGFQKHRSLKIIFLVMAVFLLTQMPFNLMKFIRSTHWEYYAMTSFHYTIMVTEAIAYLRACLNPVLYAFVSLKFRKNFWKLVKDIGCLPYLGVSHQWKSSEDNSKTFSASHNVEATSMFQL
Kind of assay: Radioligand Binding Assay (125I-CXCL16 displacement). The settings on record: L1.2 cells stably transfected with human CXCR6 cDNA, 0.1 nM 125I-CXCL16, 4° C., three-hour incubation; read-out: Potency (IC50). In outline:
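L1.2 cells stably expressing human CXCR6 incubated 3 h at 4 °C in HBSS/0.1% BSA with 0.1 nM 125I-CXCL16 and graded compound concentrations. Bound radioactivity collected by filtration and counted; IC50 from 3-parameter nonlinear regression.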
Turning to `Cn1nccc1C(=O)Nc1ccc(S(=O)(=O)Nc2cccc(C(F)(F)F)c2)c(OC(F)(F)F)c1` [Example 1.461], the IC50 (in general, the concentration that gives 50% inhibition) was in the range of 750 to 2000 nM.

For `CCOc1cc(NC(=O)[C@@H](N)c2ccccc2)ccc1S(=O)(=O)Nc1ccc(C)c(OC(F)(F)F)c1` [Example 1.462], the IC50 is at most 200 nM.

In the case of `CCOc1cc(NC(=O)[C@@H](N)C2CCCC2)ccc1S(=O)(=O)Nc1cccc(OC(F)(F)F)c1` [Example 1.463], the IC50 is at most 200 nM.

In the case of `CCOc1cc(NC(=O)C2CCCN(C(C)=O)C2)ccc1S(=O)(=O)Nc1cccc(OC(F)(F)F)c1` (centres unmarked) [Example 1.465], the IC50 is 2000 to 20000 nM.

With `CCOc1cc(NC(=O)C(O)c2ccc(C)cc2)ccc1S(=O)(=O)Nc1cccc(OC(F)(F)F)c1` (centres unmarked) [Example 1.466], the IC50 lay within 200 to 750 nM.

With `Cc1cc(NC(=O)C(F)(F)F)ccc1S(=O)(=O)Nc1cccc(C(F)(F)F)c1` [Example 1.467], the 50% inhibitory concentration (IC50) lay in the range of 2000 to 20000 nM.

`CCOc1cc(NC(=O)C2CCC[C@H]2O)ccc1S(=O)(=O)Nc1cccc(OC(F)(F)F)c1` (some centres unmarked) [Example 1.468]: the 50% inhibitory concentration (IC50) fell in the range of 200 to 750 nM.

For the compound `COc1cc(NC(=O)c2ccnn2C)ccc1S(=O)(=O)Nc1ccc(Cl)c(OC(F)(F)F)c1` [Example 1.469], the IC50 was at most 200 nM.

Regarding `CCOc1cc(NC(=O)C2CCS(=O)(=O)CC2)ccc1S(=O)(=O)Nc1cccc(OC(F)(F)F)c1` [Example 1.470], the IC50 lay within 2000 to 20000 nM.

For the compound `COc1cc(NC(=O)[C@@H]2CCCNC2)ccc1S(=O)(=O)Nc1cccc(C(F)(F)F)c1` [Example 1.471], the IC50 lay in the range of 2000 to 20000 nM.

Consider `COc1cc(NC(=O)C2NC3CCC2C3)ccc1S(=O)(=O)Nc1cccc(C(F)(F)F)c1` (centres unmarked) [Example 1.472], for which the IC50 was 2000 to 20000 nM.

Turning to `CCOc1cc(NC(=O)C(CO)c2ccccc2)ccc1S(=O)(=O)Nc1cccc(OC(F)(F)F)c1` (centres unmarked) [Example 1.473], the IC50 was at most 200 nM.

With `CCOc1cc(NC(=O)CC2(O)CCCCC2)ccc1S(=O)(=O)Nc1cccc(OC(F)(F)F)c1` [Example 1.474], the IC50 is 200 to 750 nM.

As to `CCOc1cc(NC(=O)C2CCNC(=O)C2)ccc1S(=O)(=O)Nc1cccc(OC(F)(F)F)c1` (centres unmarked) [Example 1.475], the IC50 was in the range of 2000 to 20000 nM.

With `CCOCCOCCC(C(=O)O)C(=O)Nc1ccc(S(=O)(=O)Nc2cccc(OC(F)(F)F)c2)c(OCC)c1` (centres unmarked) [Example 1.476], the IC50 is 200 to 750 nM.

For the compound `Cc1cc(NC(=O)C2CCCOC2)ccc1S(=O)(=O)Nc1cccc(C(F)(F)F)c1` (centres unmarked) [Example 1.478], the IC50 lay in the range of 750 to 2000 nM.

In the case of `CCOc1cc(NC(=O)C(C(=O)O)C2CCCC2)ccc1S(=O)(=O)Nc1cccc(OC(F)(F)F)c1` (centres unmarked) [Example 1.479], the IC50 is at most 200 nM.

In the case of `CCOc1cc(NC(=O)C2CC=CCC2)ccc1S(=O)(=O)Nc1cccc(OC(F)(F)F)c1` (centres unmarked) [Example 1.480], the IC50 was 200 to 750 nM.

Turning to `CC(=O)N[C@H](C(=O)Nc1ccc(S(=O)(=O)Nc2cccc(OC(F)(F)F)c2)c(C)c1)c1ccccc1` [Example 1.481], the IC50 was at most 200 nM.

Regarding `CC(C)[C@H](CO)C(=O)Nc1ccc(S(=O)(=O)Nc2cccc(OC(F)(F)F)c2)c(C#N)c1` [Example 1.482], the IC50 was at most 200 nM.

`CCOc1cc(NC(=O)C(C(=O)O)C2CCCCC2)ccc1S(=O)(=O)Nc1cccc(OC(F)(F)F)c1` (centres unmarked) [Example 1.484]: the IC50 was at most 200 nM.

In the case of `CCOc1cc(NC(=O)CC(O)c2nccs2)ccc1S(=O)(=O)Nc1cccc(OC(F)(F)F)c1` (centres unmarked) [Example 1.485], the IC50 was 200 to 750 nM.

For `Cc1cc(NC(=O)c2cccn2C)ccc1S(=O)(=O)Nc1cccc(C(F)(F)F)c1` [Example 1.486], the IC50 was 750 to 2000 nM.

Regarding `CCc1cc(NC(=O)C(NC(C)=O)C(C)C)ccc1S(=O)(=O)Nc1cccc(OC(F)(F)F)c1` (centres unmarked) [Example 1.487], the IC50 was at most 200 nM.

Take `CCOc1cc(NS(=O)(=O)c2ccc(NC(=O)[C@@H](CO)C(C)C)cc2OCC)ccc1Cl` [Example 1.488]: the 50% inhibitory concentration (IC50) was 200 to 750 nM.

Turning to `COc1cc(NC(=O)c2ccnn2C)ccc1S(=O)(=O)Nc1ccc(Cl)c(C(F)(F)F)c1` [Example 1.489], the IC50 was in the range of 750 to 2000 nM.

Regarding `CC(=O)Nc1cc(C)c(S(=O)(=O)Nc2cccc(C(F)(F)F)c2)c(C)c1` [Example 1.490], the IC50 was 2000 to 20000 nM.

Regarding `COc1cc(NC(=O)c2ccnn2C)ccc1S(=O)(=O)Nc1ccc(C#N)cc1` [Example 1.491], the IC50 lay in the range of 2000 to 20000 nM.

In the case of `CCOc1cc(NC(=O)[C@@H](O)C(C)CC)ccc1S(=O)(=O)Nc1cccc(OC(F)(F)F)c1` (some centres unmarked) [Example 1.492], the IC50 was at most 200 nM.

Consider `CCOc1cc(NC(=O)C(O)c2cccnc2)ccc1S(=O)(=O)Nc1cccc(OC(F)(F)F)c1` (centres unmarked) [Example 1.493], for which the half-maximal inhibitory concentration (IC50) was 750 to 2000 nM.

In the case of `CCOc1cc(NC(=O)[C@@H](CO)C2CC2)ccc1S(=O)(=O)Nc1cccc(C(F)(F)F)c1` [Example 1.494], the IC50 was at most 200 nM.

Consider `COc1cc(NC(=O)[C@@H](CO)C(C)C)ccc1S(=O)(=O)Nc1ccc(C)c(C(F)(F)F)c1` [Example 1.495], for which the IC50 was in the range of 200 to 750 nM.

With `CCCOc1cc(NC(=O)[C@@H](CO)c2ccccc2)ccc1S(=O)(=O)Nc1cccc(CC(F)(F)F)c1` [Example 1.496], the IC50 was at most 200 nM.

For the compound `COc1cc(NC(=O)C2CCCC2)ccc1S(=O)(=O)Nc1cccc(C(F)(F)F)c1` [Example 1.497], the IC50 fell in the range of 750 to 2000 nM.

As to `CCOc1cc(NC(=O)[C@@H](CO)c2ccccc2)ccc1S(=O)(=O)Nc1ccc(C)c(CC)c1` [Example 1.498], the IC50 is at most 200 nM.

Consider `CCOc1cc(NC(=O)[C@H]2CCOC[C@H]2COC)ccc1S(=O)(=O)Nc1cccc(OC(F)(F)F)c1` [Example 1.499], for which the IC50 was at most 200 nM.

As to `Cc1cc(NC(=O)C2CCOCC2)ccc1S(=O)(=O)Nc1cccc(C(F)(F)F)c1` [Example 1.500], the IC50 lay within 200 to 750 nM.

As for `Cc1cc(NC(=O)c2cncs2)ccc1S(=O)(=O)Nc1cccc(C(F)(F)F)c1` [Example 1.501], the IC50 lay within 200 to 750 nM.

As for `Cc1cc(NC(=O)c2ccnn2C)cc(F)c1S(=O)(=O)Nc1cccc(OC(F)(F)F)c1` [Example 1.502], the IC50 lay in the range of 200 to 750 nM.

As to `CCOc1cc(NC(=O)[C@@H](NC(=O)C(F)(F)F)C(C)C)ccc1S(=O)(=O)Nc1cccc(OC(F)(F)F)c1` [Example 1.503], the IC50 was at most 200 nM.

For `Cc1cc(NC(=O)c2ccnn2C)cc(C)c1S(=O)(=O)Nc1cccc(C(F)(F)F)c1` [Example 1.504], the IC50 fell in the range of 200 to 750 nM.

For the compound `CCOc1cc(NC(=O)[C@@H]2CC=CC[C@H]2O)ccc1S(=O)(=O)Nc1cccc(OC(F)(F)F)c1` [Example 1.505], the IC50 was at most 200 nM.

For the compound `COc1cc(NC(=O)C2C3CCC(C3)N2C(=O)OC(C)(C)C)ccc1S(=O)(=O)Nc1cccc(C(F)(F)F)c1` (centres unmarked) [Example 1.506], the IC50 was in the range of 750 to 2000 nM.

For the compound `CCOc1cc(NC(=O)[C@@H](NC(C)=O)C(C)C)ccc1S(=O)(=O)Nc1cccc(C(F)(F)F)c1` [Example 1.507], the IC50 is at most 200 nM.

Consider `CCOc1cc(NC(=O)C2CC3C=CC2O3)ccc1S(=O)(=O)Nc1cccc(OC(F)(F)F)c1` (centres unmarked) [Example 1.508], for which the IC50 was at most 200 nM.

`CCCc1cc(NC(=O)[C@@H](CO)c2ccccc2)ccc1S(=O)(=O)Nc1cccc(OC(F)(F)F)c1` [Example 1.509]: the IC50 was at most 200 nM.

Regarding `CCOc1cc(NC(=O)c2ccc[n+]([O-])c2)ccc1S(=O)(=O)Nc1cccc(OC(F)(F)F)c1` [Example 1.510], the IC50 was at most 200 nM.

`CCOc1cc(NC(=O)C(O)c2c(F)cccc2F)ccc1S(=O)(=O)Nc1cccc(OC(F)(F)F)c1` (centres unmarked) [Example 1.511]: the IC50 is at most 200 nM.

On to `CCOc1cc(NC(=O)CC(C)(O)C(F)(F)F)ccc1S(=O)(=O)Nc1cccc(OC(F)(F)F)c1` (centres unmarked) [Example 1.512], for which the IC50 was in the range of 200 to 750 nM.

Consider `CCOc1cc(NC(=O)[C@@H]2CCOCC[C@@H]2O)ccc1S(=O)(=O)Nc1cccc(OC(F)(F)F)c1` [Example 1.513], for which the IC50 lay in the range of 200 to 750 nM.

Consider `CCOc1cc(NC(=O)c2ccc(=O)n(C)c2)ccc1S(=O)(=O)Nc1cccc(OC(F)(F)F)c1` [Example 1.515], for which the concentration for half-maximal inhibition (IC50) was in the range of 750 to 2000 nM.

With `CCOc1cc(NC(=O)[C@@H](CO)C2CC2)ccc1S(=O)(=O)Nc1cccc(C(C)(C)C)c1` [Example 1.516], the IC50 lay in the range of 200 to 750 nM.

Consider `CCOc1cc(NC(=O)C(C)C(O)C2CC3C=CC2C3)ccc1S(=O)(=O)Nc1cccc(OC(F)(F)F)c1` (centres unmarked) [Example 1.517], for which the IC50 lay in the range of 200 to 750 nM.

For the compound `CCn1nccc1C(=O)Nc1ccc(S(=O)(=O)Nc2cccc(C(F)(F)F)c2)c(C)c1` [Example 1.519], the IC50 was in the range of 200 to 750 nM.

Consider `Cc1cc(NC(=O)c2ccnn2C)cc(F)c1S(=O)(=O)Nc1cccc(C(F)(F)F)c1` [Example 1.520], for which the IC50 fell in the range of 750 to 2000 nM.

In the case of `CCOc1cc(NC(=O)[C@@H](O)C(C)C)ccc1S(=O)(=O)Nc1ccc(C2CC2)c(OC(F)(F)F)c1` [Example 1.521], the IC50 is at most 200 nM.

For `Cc1cc(NC(=O)C2CCN(C)CC2)ccc1S(=O)(=O)Nc1cccc(C(F)(F)F)c1` [Example 1.522], the IC50 was 2000 to 20000 nM.

Take `CCOc1cc(NC(=O)[C@@H](CO)C(C)C)ccc1S(=O)(=O)Nc1ccc(Cl)c(C(F)(F)F)c1` [Example 1.523]: the IC50 was at most 200 nM.

`Cc1cc(NC(=O)c2ccncc2)ccc1S(=O)(=O)Nc1cccc(C(F)(F)F)c1` [Example 1.524]: the IC50 lay in the range of 200 to 750 nM.

Turning to `COc1cc(NC(=O)C2=C(C)OCCC2)ccc1S(=O)(=O)Nc1cccc(OC(F)(F)F)c1` [Example 1.525], the IC50 lay within 200 to 750 nM.

Turning to `COc1cc(NC(=O)CC2CCOC2)ccc1S(=O)(=O)Nc1cccc(C(F)(F)F)c1` (centres unmarked) [Example 1.526], the IC50 was 2000 to 20000 nM.

For `CCOc1cc(NC(=O)C(O)c2ccc(O)cc2)ccc1S(=O)(=O)Nc1cccc(OC(F)(F)F)c1` (centres unmarked) [Example 1.527], the IC50 was in the range of 200 to 750 nM.

As for `CCOc1cc(NC(=O)C(O)c2cccc(Cl)c2)ccc1S(=O)(=O)Nc1cccc(OC(F)(F)F)c1` (centres unmarked) [Example 1.528], the IC50 was at most 200 nM.

Regarding `CCOc1cc(NC(=O)c2cn[nH]c(=O)c2)ccc1S(=O)(=O)Nc1cccc(OC(F)(F)F)c1` [Example 1.529], the IC50 was at most 200 nM.

As for `CCOc1cc(NC(=O)c2ccnnc2)ccc1S(=O)(=O)Nc1cccc(OC(F)(F)F)c1` [Example 1.530], the IC50 is at most 200 nM.
